pIC50, pKi: −log10 of the molar value.
Key:
Cholinesterase = Cholinesterase (Homo sapiens, UniProt P06276)
Description: Inhibition of human serum recombinant BChE using butyrylthiocholine iodide as substrate preincubated for 20 mins by Ellman's method

Acetylcholinesterase [1] = biological target: T1, Acetylcholinesterase (Homo sapiens, UniProt P22303)
Description: Inhibition of human serum recombinant AChE using acetylthiocholine iodide as substrate preincubated for 20 mins by Ellman's method

Beta-secretase 1 [2] = biological target: T2, Beta-secretase 1 (Homo sapiens, UniProt P56817)
Description: Inhibition of BACE1 expressed in baculovirus assessed as inhibition of amyloid beta-42 production after 60 mins by spectrofluorometric assay

Beta-secretase 1 [3] = biological target: T2, Beta-secretase 1; experiment: Inhibition of BACE1 expressed in baculovirus assessed as inhibition of amyloid beta-42 production at 10 uM after 60 mins by spectrofluorometric assay
Acetylcholinesterase [4] = biological target: T1, Acetylcholinesterase; experiment: Mixed-type inhibition of human AChE assessed as hydrolysis of acetylthiocholine by Lineweaver-Burk plot analysis

T2 sequence (P56817 whole entry): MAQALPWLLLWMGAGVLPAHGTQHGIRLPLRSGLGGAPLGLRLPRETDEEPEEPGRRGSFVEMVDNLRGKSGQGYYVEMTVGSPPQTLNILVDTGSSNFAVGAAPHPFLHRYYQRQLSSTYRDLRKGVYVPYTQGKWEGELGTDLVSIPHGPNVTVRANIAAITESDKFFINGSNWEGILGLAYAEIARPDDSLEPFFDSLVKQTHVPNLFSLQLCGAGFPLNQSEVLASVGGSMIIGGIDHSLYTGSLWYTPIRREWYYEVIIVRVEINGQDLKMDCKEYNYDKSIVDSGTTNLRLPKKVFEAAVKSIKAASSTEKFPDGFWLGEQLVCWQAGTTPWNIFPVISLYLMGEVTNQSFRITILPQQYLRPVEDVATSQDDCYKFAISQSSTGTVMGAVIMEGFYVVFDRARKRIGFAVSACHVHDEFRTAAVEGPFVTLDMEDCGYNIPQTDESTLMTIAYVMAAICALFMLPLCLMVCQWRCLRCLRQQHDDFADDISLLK
Cholinesterase, sequence (P06276 whole entry): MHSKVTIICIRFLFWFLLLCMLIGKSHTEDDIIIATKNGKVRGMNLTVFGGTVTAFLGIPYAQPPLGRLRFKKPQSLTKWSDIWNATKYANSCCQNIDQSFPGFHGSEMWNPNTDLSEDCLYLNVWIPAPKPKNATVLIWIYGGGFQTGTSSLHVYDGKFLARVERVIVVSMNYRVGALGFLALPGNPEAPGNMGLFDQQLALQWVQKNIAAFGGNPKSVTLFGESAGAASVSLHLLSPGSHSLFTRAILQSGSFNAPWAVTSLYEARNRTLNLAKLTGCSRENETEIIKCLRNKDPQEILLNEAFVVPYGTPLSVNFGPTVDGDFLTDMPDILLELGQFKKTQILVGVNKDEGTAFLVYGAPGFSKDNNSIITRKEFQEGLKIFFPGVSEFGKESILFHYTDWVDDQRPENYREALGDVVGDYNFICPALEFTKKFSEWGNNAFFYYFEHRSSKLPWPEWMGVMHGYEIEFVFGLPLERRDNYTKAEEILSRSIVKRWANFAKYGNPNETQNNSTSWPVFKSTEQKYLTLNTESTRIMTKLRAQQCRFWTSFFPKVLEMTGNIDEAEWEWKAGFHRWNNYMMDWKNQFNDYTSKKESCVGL
T1 sequence (P22303 whole entry): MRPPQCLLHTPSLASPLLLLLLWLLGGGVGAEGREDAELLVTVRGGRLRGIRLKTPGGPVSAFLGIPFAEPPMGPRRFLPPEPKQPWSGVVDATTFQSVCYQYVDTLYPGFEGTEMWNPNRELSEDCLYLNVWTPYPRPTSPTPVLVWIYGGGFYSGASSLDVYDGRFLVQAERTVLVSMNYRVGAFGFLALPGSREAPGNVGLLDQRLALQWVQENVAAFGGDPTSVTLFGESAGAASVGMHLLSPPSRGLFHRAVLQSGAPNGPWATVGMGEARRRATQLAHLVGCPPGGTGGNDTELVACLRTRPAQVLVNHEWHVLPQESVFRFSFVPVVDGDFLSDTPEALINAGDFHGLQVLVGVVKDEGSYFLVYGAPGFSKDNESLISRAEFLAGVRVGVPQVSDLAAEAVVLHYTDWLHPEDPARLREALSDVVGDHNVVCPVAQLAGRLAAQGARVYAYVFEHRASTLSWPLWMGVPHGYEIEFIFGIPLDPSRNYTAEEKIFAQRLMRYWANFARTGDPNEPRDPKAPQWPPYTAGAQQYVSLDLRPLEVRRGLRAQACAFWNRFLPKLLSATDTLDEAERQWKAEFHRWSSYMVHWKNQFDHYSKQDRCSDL

Compound | pIC50 (Cholinesterase) | pIC50 (Acetylcholinesterase [1]) | pIC50 (Beta-secretase 1 [2]) | inhibition (Beta-secretase 1 [3]) | pKi (Acetylcholinesterase [4])
c1ccc2c(NCCCCCCCCN3CCOCC3)c3c(nc2c1)CCCC3 | 7.37 | 7.78 | – | – | –
c1ccc2c(c1)Cc1c-2nc2ccccc2c1NCCCCCCCNc1c2c(nc3ccccc13)-c1ccccc1C2 | 7.54 | 6.34 | 6.40 | 27% | –
Clc1ccc2c(NCCCCCCCNc3c4c(nc5cc(Cl)ccc35)-c3ccccc3C4)c3c(nc2c1)CCCC3 | 5.78 | 7.92 | – | – | –
c1ccc2c(NCCCCCCN3CCOCC3)c3c(nc2c1)CCCC3 | 7.00 | 7.16 | – | – | –
O=c1c2ccc(OCCCCCCCNc3c4c(nc5ccccc35)CCCC4)cc2oc2ncccc12 | 7.00 | 6.55 | – | – | –
c1ccc2c(NCCCCCCCN3CCOCC3)c3c(nc2c1)CCCC3 | 7.04 | 7.35 | – | – | –
Clc1ccc2c(NCCCCCCCOc3cccc(-c4cc5ccccc5o4)c3)c3c(nc2c1)CCCC3 | 7.38 | 6.59 | – | – | –
Clc1ccc2c(NCCCCCCCNc3c4c(nc5ccccc35)-c3ccccc3C4)c3c(nc2c1)CCCC3 | 7.20 | 8.98 | 6.00 | 27% | 9.00
c1ccc2c(c1)Cc1c-2nc2ccccc2c1NCCCCCCCNc1c2c(nc3ccccc13)CCCC2 | 7.61 | 7.86 | – | 27% | –
c1ccc2c(NCCCCCCCCCCN3CCOCC3)c3c(nc2c1)CCCC3 | 7.83 | 7.55 | – | – | –
c1ccc2c(NCCCCCCCCCN3CCOCC3)c3c(nc2c1)CCCC3 | 7.42 | 7.47 | – | – | –
Clc1ccc2c(NCCCCCCCOc3ccc(-c4cc5ccccc5o4)cc3)c3c(nc2c1)CCCC3 | 5.14 | 6.51 | – | – | –

Source: ChEMBL document CHEMBL1817594, “Multi-target strategy to address Alzheimer's disease: design, synthesis and biological evaluation of new tacrine-based dimers” (Eur J Med Chem, 2011)
